Literature values as cited in US20060253014A1 (priority 2003, published 2006).
Where two headings read alike, the source gives them in different places.

System: inbred mouse strains

| SMILES | Sensitive Strains (low AD50) (murine strains, AD50 = the half-maximal antinociceptive dose) | Resistant Stains (high AD50) (mouse, in vivo) | Sensitive Strains (low AD50) (mouse, in vivo) |
| --- | --- | --- | --- |
| Clc1cccc(Cl)c1N=C1NCCN1 [Clonidine, clonidine] | 129P3, A, AKR, | – | – |
| Clc1ccc(C2CC3CCC2N3)cn1 (stereo not drawn) [Epibetadine, epibatidine] | – | AKR, CBA, C57BL/10 | A, BALB/c |
| Cc1c(C(=O)c2cccc3ccccc23)c2cccc3c2n1[C@H](CN1CCOCC1)CO3 [WIN 55, 212-2] | – | AKR, C57BL/10, C58 | 129P3, A, DBA/2 |
| CN1CC[C@]23c4c5ccc(O)c4O[C@H]2[C@@H](O)C=C[C@H]3[C@H]1C5 [morphine] | – | – | 129P3, C3H/He, DBA/2 |
